Tests used:
CT26‐luc cells = experiment: Annexin V-FITC/propidium iodide (AV/PI) cell viability assay by flow cytometry; type: cell-based, mouse; settings: 740 nm LED light (60 min, 12.6 J cm^−2)
Experimental: Following the gold standard assessment method, the Annexin V‐FITC/propidium iodide (AV/PI) dual staining assay was conducted to screen the suitable concentrations of each drug (Figure S25). In addition, to better monitor tumor growth in vivo, luciferase‐labelled tumor cells (CT26‐luc) were used for in vivo experiments by bioluminescence imaging. […] As the concentration of each drug was increased, the proportion of live cells decreased, while the percentage of dying cells (Q3, Annexin V^+/PI^−) and dead cells (Q2, Annexin V^+/PI^+ and Q1, Annexin V^−/PI^+) increased. The concentrations at which approximately 5% of the cells remained alive (IC95) were 600 µM for Cisplatin in the dark, 1.8 µM for Os2, and 6.5 µM for Ce6 upon 740 nm LED light irradiation (60 min, 12.6 J cm^−2). These concentrations were selected for the subsequent in vivo vaccination studies. […]
incubated for 24 h. Cells were then treat ed with the determined IC50 of complexes and irradiated or kept in the dark. Supernatants were collected 12 h post-t reatm ent, and the extracellular ATP content was measured with Adenosine 5′ -triphosphate (ATP) Bioluminescent Assay Kit (Sigma-Aldrich) according tomanufacturer ’s ins truction. […]
556419) and PI (BD Biosciences, Catalog no.51- 66211E). CT26- luc cells were analyzed by flow cytometry (Beckm an Coulter Life Sciences, CytoFLEX LX Flow Cytometer). […]

calreticulin (ecto‐CRT) = experiment: Immunofluorescence staining of cell surface calreticulin in CT26 cells; type: cell-based, mouse; settings: CT26, 740 nm light
Experimental: Next, translocation of ER‐resident calreticulin (endo‐CRT) to the cell surface (ecto‐CRT) was measured by confocal microscopy following treatments with Ce6 or Os2 exposed to 740 or 770 nm illumination (Figure 3B,D). In this experiment, cells were fixed but not permeabilized before CRT staining to label only the ecto‐CRT, which is present at the cell surface. […]
concentrations and incub ated for 4 h in the dark. Following the 4 h dark incubation with Os2, wells containing the compound were replaced with the medium containing the selective ROS s caveng ers: 5 mM sodium azide (NaN₃) for singlet oxygen (¹O₂) or 50 mM D-mannitol for hydroxyl radicals (•OH). […] Cell viability was assessed using a 0.2 mg/mL resazurin solution incubated in the dark for 4 h, and fluorescence was measured on a BioTek Cytation 5 Cell Imaging Multimode […]
Singlet oxygen and hydroxyl r adical generation k inetics of Os2 in s olution The generation of singlet oxygen (¹O₂) and hydroxyl radicals (•OH) by Os2 in solution was evalu ated using AB DA (100 μ M) and HPF (5 μ M) as probes, respectively. […] AB DA absorban ce d ecay was monitored to track ¹O₂ gener ation, while HPF fluorescence increas e (λex = 490 nm; λ em = 500-700 nm) was measured to track •OH formation. Control solutions without Os2 wer e measured under the same conditions to account for background signals. […]

C=Cc1c(C)c2cc3nc(c(CC(=O)O)c4[nH]c(cc5nc(cc1[nH]2)C(C)=C5CC)c(C)c4C(=O)O)[C@@H](CCC(=O)O)[C@@H]3C [Ce6, chlorin e6]
Concentration at which approximately 5% of the cells remained alive (IC95) (CT26‐luc cells): 6.5 µM
ecto‐CRT signal (calreticulin (ecto‐CRT)): weaker, but clearly visible

Reference: article PMC13327620, “A Deep‐Red‐Absorbing Osmium(II) Complex as a Photosensitizer for Photodynamic Therapy Inducing Immunogenic Cell Death” (Angewandte Chemie (International Ed. in English), 2026)
